Experimental data from article PMC10853903 (Analytical Chemistry, 2024).
pKd: −log10 of the molar value.

Molecular target: agglutinin 120 from Ricinus communis (RCA120) (Ricinus communis, UniProt P06750)
Test: biochemical
Format: binding

## CO[C@@H]1O[C@H](CO)[C@H](O)[C@H](O)[C@H]1O [methyl-β-D-galactoside]
  pKd: 3.57
